Reference: US20130177610A1, “NANO-METALLIC ALLOY DELIVERY SYSTEM FOR TREATMENT OF INFECTED CELLS AND LEGIONS” (UNIVERSITY OF NORTH CAROLINA AT GREENSBORO, priority 2008, published 2013)

System: S. Aureus in osteoblast cells
Test: Confocal microscopy live/dead staining (SYTO 9 / propidium iodide) of infected osteoblasts
Assay type: cell-based, Staphylococcus aureus
Conditions: gentamycine alone, FIG. 6C
Description: Confocal microscopy provided the evidence for intracellular bacteria killing. Osteoblast cells were cultured on 18 mm cover slips in a six well plate. Cells were treated with nanoparticles 1 ug/mL. The stain used was from invitrogen (L-7002) with two types of Dyes, SYTO 9 dye, 3,34 mM (Component A), 300 μL solution in DMSO and Propidium iodide PI, 20 mM (Component B), 300 μL solution in DMSO. The plates were incubated in the dark for 15 minutes after which the coverslips with growing co-cultured cells were gently removed and were placed on a glass slide containing 50 μL of 10%A glycerol with cells lying between the cover slip and the glass slide. The slide was observed under a confocal microscope using bandpass filters for red and green color. Images were obtained at different working distances and were superimposed by an Olympus CCD camera software to get images with dual color. […] Gentamycine is an antibiotic that is not capable of penetrating the bone cells membrane.

## gentamycine
  dead bacteria (red) in infected osteoblast cells, confocal image: no significant numbers of dead bacteria
